Earlier results in patent publication US20250041383A1, “MODIFIED CAVEOLIN-1 PEPTIDES FOR THE TREATMENT OF POST-ACUTE COVID-19” (priority 2021, published 2025).
Ends that are not written are not given here.

Tested on: lung
Conditions: treatment with the CSP 20-mer; literature

Q: Which collagen deposition does the source give for “DGIWKASFTTFTVTKYWFYR (not fully specified) [CSP 20-mer, the full-length CSD of caveolin-1, amino acids 82-101]” here?
A: Its collagen deposition is “reduced”.

Q: What about the “expression of profibrogenic signaling molecules” value of the same sequence?
A: The value was “down-regulation”.

Q: And the “lung aSMA” value?
A: Its value is “reduced”.

Q: What about the lung epithelial apoptosis of the same sequence?
A: Its lung epithelial apoptosis is “reduced”.
